Laboratory results: patent US8129402B2 (priority 2002, dated 2012)
Entries after “also recorded” stand apart in the source; their conditions may differ.

What was measured:
[1] = system: [PSI+] prion (prion form of the protein Sup35p), STRg6 strain; format: cell-based, Saccharomyces cerevisiae; conditions: for relative anti-prion activity on a dish (FIG. 4): 10 μl of a 10 mM solution applied; for activity against the [PSI+] prion (FIG. 7, validation of the screen) / activity compared with another compound in the screen: medium contains 200 μM of guanidium chloride; for synergy of action with guanidium chloride: sub-effective guanidium chloride in medium (200 μM, 500 μM)
[2] = system: [URE3] prion (Ure2p), NT34 strain; format: cell-based, Saccharomyces cerevisiae; conditions: for red halo on NT34 lawn ([URE3] secondary screen): FIG. 6
[3] = system: [URE3] prion, NT34 and CC34 strains; format: cell-based, Saccharomyces cerevisiae
mammal prion PrP = mammal prion PrP (Mus musculus, UniProt P04925); conditions: cited from earlier work
Chain of mammal prion PrP (P04925 23-230 limits assumed): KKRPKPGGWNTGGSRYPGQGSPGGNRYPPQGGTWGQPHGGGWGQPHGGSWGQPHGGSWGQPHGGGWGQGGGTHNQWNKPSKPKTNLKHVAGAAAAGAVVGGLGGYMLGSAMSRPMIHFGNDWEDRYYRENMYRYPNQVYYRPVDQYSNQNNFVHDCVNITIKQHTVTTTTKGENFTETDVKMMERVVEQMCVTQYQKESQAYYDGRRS

[4] = system: [PSI+] prion, "strong" strain 74-D694; format: cell-based, Saccharomyces cerevisiae
[5] = target: PrP^sc in ScN2a-22L cells (Mus musculus, UniProt P04925); format: cell-based
Chain of PrP^sc in ScN2a-22L cells (P04925 23-230 limits assumed): as above

## Nc1nc2ccccc2c2ccc(Cl)cc12 [6A-8CP, 6-amino-8-chlorophenanthridine]
[1]
  relative anti-prion activity on a dish (FIG. 4): again increased the activity

## CCN(CC)CCCC(C)Nc1c2ccc(Cl)cc2nc2ccc(OC)cc12 (stereo not drawn) [quinacrine]
[1]
  activity against the [PSI+] prion (FIG. 7, validation of the screen): a certain activity
  activity compared with another compound in the screen: clearly weaker than that of 6-aminophenanthridine; also recorded: activity greater than the latter

## c1ccc2c(c1)cnc1ccccc12 [phenanthridine]
[2]
  red halo on NT34 lawn ([URE3] secondary screen): cause the appearance of a red halo
[1]
  general statement of anti-prion activity in the screen: particularly active
  synergy of action with guanidium chloride: activity increases significantly as a function of the quantity of guanidium chloride
[1]; 15 μl of a 10 mM solution in DMSO, medium with 0.2 mM guanidium chloride, FIG. 3
  anti-prion activity: red halo around the filter disc (size of the halo): positive signal
[1]; medium without guanidium chloride
  activity on a medium without guanidium chloride: always active
[3]
  colony colour of NT34 cells recovered around the filter, on fresh medium free of molecules: red colonies

## CN(C)CC/C=C1/c2ccccc2Sc2ccc(Cl)cc21 [chloroprothixene]
[1]
  activity against the [PSI+] prion (FIG. 7, validation of the screen): inactive
Mammal prion PrP
  activity in the mammal system (Prof. Prusiner's test): inactive

## CN(C)CCCN1c2ccccc2Sc2ccc(Cl)cc21 [chlorpromazine]
[1]
  activity against the [PSI+] prion (FIG. 7, validation of the screen): a certain activity
  activity compared with another compound in the screen: clearly weaker than that of 6-aminophenanthridine
  synergy of action with guanidium chloride: strong synergy of action

## Cl.N=C(N)N [guanidium chloride]
[2]; 5 mM of guanidium chloride for approximately ten generations
  colony colour of NT34 strain after treatment: red colonies
[4]; 5 mM guanidium chloride, 0.2% DMSO, after 48 hours (approximately 12 generations)
  curing of [PSI+] cells (red staining of the drop of cells): complete curing
[3]
  colony colour of NT34 cells recovered around the filter, on fresh medium free of molecules: red colonies

## COc1ccc(CCN(C)CCCC(C#N)(c2ccc(OC)c(OC)c2)C(C)C)cc1OC (stereo not drawn) [verapamil]
[1]
  activity against the [PSI+] prion (FIG. 7, validation of the screen): no curative effect could be detected

## O=C(CCCN1CCC(O)(c2ccc(Cl)cc2)CC1)c1ccc(F)cc1 [haloperidol]
[1]
  activity against the [PSI+] prion (FIG. 7, validation of the screen): inactive
Mammal prion PrP
  activity in the mammal system (Prof. Prusiner's test): inactive

## NC(=O)N1c2ccccc2C=Cc2ccccc21 [carbamazepine]
[1]
  activity against the [PSI+] prion (FIG. 7, validation of the screen): inactive
Mammal prion PrP
  activity in the mammal system (Prof. Prusiner's test): inactive

## Nc1nc2ccccc2c2ccccc12 [6-aminophenanthridine]
[2]
  red halo on NT34 lawn ([URE3] secondary screen): cause the appearance of a red halo
[1]
  general statement of anti-prion activity in the screen: particularly active
  relative anti-prion activity on a dish (FIG. 4): still more active than the Kastellpaolitines and phenanthridine
[4]; 5 days liquid culture, compound alone, FIG. 5
  curing of the [PSI+] prion in liquid medium: capable of partially curing the [PSI+] prion from a significant number of cells
[4]; plus sub-effective dose (100 μM) of guanidium chloride
  curing effectiveness with added guanidium chloride in liquid medium: increased
[3]
  colony colour of NT34 cells recovered around the filter, on fresh medium free of molecules: red colonies
[3]; CC34 strain, different doses, alone
  curing of the [URE3] prion (ability to grow on USA medium): capable of curing the [URE3] prion in a significant manner
[3]; CC34 strain, with 200 μM of guanidium chloride
  curing of the [URE3] prion in combination with guanidium chloride: accentuated
[5]
  elimination of the mammal prion in vitro (summary): effective
[5]; at 2 and 4 μM
  effect on the elimination of PrPsc: same effect

## Nc1nc2ccccc2c2ccc(C(F)(F)F)cc12 [6A-8tFP, 6-amino-8-trifluoromethylphenanthridine]
[1]
  relative anti-prion activity on a dish (FIG. 4): one of the most active compounds

## CN(C)c1ccc2nc3ccc(=[N+](C)C)cc-3sc2c1 [methylene blue]
[1]
  activity against the [PSI+] prion (FIG. 7, validation of the screen): inactive
Mammal prion PrP
  activity in the mammal system (Prof. Prusiner's test): inactive

## CN(C)CCCN1c2ccccc2CCc2ccccc21 [imipramine]
[1]
  activity against the [PSI+] prion (FIG. 7, validation of the screen): inactive
Mammal prion PrP
  activity in the mammal system (Prof. Prusiner's test): inactive

## CC(=O)c1ccc2c(c1)N(CCCN(C)C)c1ccccc1S2 [acepromazine]
[1]
  activity against the [PSI+] prion (FIG. 7, validation of the screen): weak activity
Mammal prion PrP
  activity in the mammal system (Prof. Prusiner's test): slightly active
